In the RepoRT retention time repository:

Experiment: HILIC, Waters Atlantis Premier BEH Z-HILIC, 100 × 2.1 mm, 1.7 µm, 40 °C, 0.15 mL/min, estimated dead time 1.5 min; A: water + 20 mM ammonium carbonate + 5 µM medronic acid; B: 10% water + 90% acetonitrile + 2 mM ammonium carbonate + 0.5 µM medronic acid; gradient (min/%B) 0/95 18/60 18.1/20 21.5/20 22/95 23.5/95 25.5/95
Conditions: stereoisomer not certain

| Compound | LC retention time [min] |
| --- | --- |
| O=C(O)CCC(O)C(=O)O (stereo not given) [2-hydroxy glutaric acid] | 10 |
| Nc1ncnc2c1ncn2C1OC(COP(=O)(O)OP(=O)(O)O)C(O)C1O (stereo not given) [ADP] | 12.2 |
| Nc1ncnc2c1ncn2C1OC(COP(=O)(O)O)C(O)C1O (stereo not given) [AMP] | 9.98 |
| Nc1ncnc2c1ncn2C1OC(COP(=O)(O)OP(=O)(O)OP(=O)(O)O)C(O)C1O (stereo not given) [ATP] | 14.3 |
| CC(=O)SCCNC(=O)CCNC(=O)C(O)C(C)(C)COP(=O)(O)OP(=O)(O)OCC1OC(n2cnc3c(N)ncnc32)C(O)C1OP(=O)(O)O (stereo not given) [Acetyl-CoA] | 10.9 |
| Nc1ncnc2c1ncn2C1OC(CO)C(O)C1O (stereo not given) [Adenosine] | 4.12 |
| O=C(O)CC(O)(CC(=O)O)C(=O)O [Citric acid] | 14.8 |
| CC(C)(COP(=O)(O)OP(=O)(O)OCC1OC(n2cnc3c(N)ncnc32)C(O)C1OP(=O)(O)O)C(O)C(=O)NCCC(=O)NCCS (stereo not given) [CoenzymeA] | 12.9 |
| Cc1cc2nc3c(=O)[nH]c(=O)nc-3n(CC(O)C(O)C(O)COP(=O)(O)OP(=O)(O)OCC3OC(n4cnc5c(N)ncnc54)C(O)C3O)c2cc1C (stereo not given) [FAD] | 7.66 |
| O=C(CO)C(O)C(O)C(O)COP(=O)(O)O (stereo not given) [Fructose 6-phosphate] | 12.2 |
| O=P(O)(O)OCC1OC(O)(COP(=O)(O)O)C(O)C1O (stereo not given) [Fructose-1,6-bisphosphate] | 16.9 |
| Nc1nc2c(ncn2C2OC(COP(=O)(O)OP(=O)(O)OP(=O)(O)O)C(O)C2O)c(=O)[nH]1 (stereo not given) [GTP] | 17.2 |
| O=P(O)(O)OCC1OC(O)C(O)C(O)C1O (stereo not given) [Glucose-6-phosphate] | 13.3 |
| NC(CCC(=O)O)C(=O)O (stereo not given) [Glutamic acid] | 10.3 |
| O=P(O)(O)OCC(O)CO (stereo not given) [Glycerol-3-phosphate] | 10.9 |
| O=C(O)CC(C(=O)O)C(O)C(=O)O (stereo not given) [Isocitric acid] | 14.6 |
| CC(O)C(=O)O (stereo not given) [Lactic Acid] | 3.43 |
| CC(C)CC(N)C(=O)O (stereo not given) [Leucine] | 6.18 |
| NC(=O)C1=CN(C2OC(COP(=O)(O)OP(=O)(O)OCC3OC(n4cnc5c(N)ncnc54)C(OP(=O)(O)O)C3O)C(O)C2O)C=CC1 (stereo not given) [NADPH] | 15 |
| C=C(OP(=O)(O)O)C(=O)O [PEP] | 14.4 |
| O=C(O)CCC(=O)O [Succinic Acid] | 10.1 |
| O=C(CO)COP(=O)(O)O [Triose phosphate] | 10.8 |
| CC(=O)NC1C(OP(=O)(O)OP(=O)(O)OCC2OC(n3ccc(=O)[nH]c3=O)C(O)C2O)OC(CO)C(O)C1O (stereo not given) [UDP-GlcNAc] | 10.5 |
| CCC(=O)OC(CC(=O)[O-])C[N+](C)(C)C (stereo not given) [carnitine-C3] | 6.75 |

More lines, now with the values ahead:

| LC retention time [min] | Compound |
| --- | --- |
| 9.44 | O=C(O)CCC(=O)C(=O)O [2-Oxoglutaric acid] |
| 4.54 | O=C(O)CCCCC1SCC2NC(=O)NC21 (stereo not given) [Biotin] |
| 10.4 | C[N+](C)(C)CC(O)CC(=O)[O-] (stereo not given) [Carnitine] |
| 11 | NC(=O)CCC(N)C(=O)O (stereo not given) [Glutamine] |
| 7.88 | OCC1OC(O)C(O)C(O)C1O (stereo not given) [Hexose] |
| 6.62 | CCC(C)C(N)C(=O)O (stereo not given) [Isoleucine] |
| 9.07 | NC(=O)C1=CN(C2OC(COP(=O)(O)OP(=O)(O)OCC3OC(n4cnc5c(N)ncnc54)C(O)C3O)C(O)C2O)C=CC1 (stereo not given) [NADH] |
| 14.4 | NC(=O)c1ccc[n+](C2OC(COP(=O)(O)OP(=O)(O)OCC3OC(n4cnc5c(N)ncnc54)C(OP(=O)(O)O)C3O)C(O)C2O)c1 (stereo not given) [NADP] |
| 10.9 | NC(=O)c1ccc[n+](C2OC(COP(=O)(O)OP(=O)(O)OCC3OC(n4cnc5c(N)ncnc54)C(O)C3O)C(O)C2O)c1 (stereo not given) [NAD] |
| 13.4 | O=C(O)C(CO)OP(=O)(O)O (stereo not given) [Phosphoglyceric acid A] |
| 4.65 | O=C1CC(C(=O)O)NC(=O)N1 (stereo not given) [dihydroorotic acid] |
